Measured values from patent US5827895A, “Hexahydrolupulones useful as anticancer agents” (Regents of the University of Minnesota, priority 1996, dated 1998).
Where two headings read alike, the source gives them in different places.

How the values were obtained:
MCF-7 cells = assay: Colony formation (clonogenic) assay, cytotoxic activity, 18 hour pulse exposure; type: cell-based; details: Homo sapiens, MCF7, 2 experiments, read-out: ID50 (the source's name)
Procedure: HHC was tested for cytotoxic activity using a colony formation assay, using an 18 hour pulse exposure. The purpose of the clonogenic assay is to determine the concentration of HHC at which 50% of cell growth is inhibited (i.e., IC50) when cells are exposed to the HHC for a defined amount of time (i.e., a pulse exposure to the xenobiotic).
Five ml of a mixture of 2×10^5 cells/ml (MCF-7 cells) were placed in each of 4 T-25 flasks in a media of RPMI (Gibco). The cells were incubated at 37 ° C. under 5% CO2 for a minimum of 14 hours to allow the cells to attach. The cells were pulsed for 18 hours with HHC concentrations of 0, 1.5, and 25 μM, or with DMSO.
The media was removed from the flasks (i.e., media with floating cells) and placed in 15 ml polypropylene centrifuge tubes 1-4 (summarized in Table II). […]
The cells in the original cell suspension (i.e., in the flask) were counted using trypan blue exclusion assay (described in Example II). Based on this count, the number of cells in the 50x tubes were calculated. The volume necessary to acquire approximately 5400 cells was then determined. […]
Five ml of suspension from each of tubes 13-16 was transferred to 60×15 mm tissue culture dishes (in triplicate). […] The cells were counted in those colonies which consisted of at least 50 cells. The ID50 was determined as described in Example II.

[1] = test system: DNA, RNA or protein synthesis; assay: Other studies on DNA, RNA or protein synthesis in cancer cells; type: cell-based
[2] = test system: CEM cells (human acute lymphoblastic leukemia); assay: Trypan blue exclusion assay, cytostatic activity, CEM; type: cell-based; details: CCRF-CEM, incubation 48h, 4 experiments, read-out: ID50 (the source's name)
[3] = test system: HeLa S3 cells (human cervical epithelioid carcinoma); assay: Trypan blue exclusion assay, cytostatic activity, HeLa S3; type: cell-based; details: incubation 24h, 3 experiments, read-out: ID50 (the source's name)
[4] = Mannering et al.; cited from earlier work
Leishmania tarentolae = assay: Anti-protozoal activity, cell counts of Leishmania tarentolae; type: cell-based; details: for activity at 0.1 µM / activity at 0.25 µM / activity at 0.5 µM / activity at 1 µM / activity at 2.5 µM: Leishmania tarentolae, read-out: % control
Procedure: Leishmania tarentolae was grown in BHI (brain heart infusion; Difco) supplemented with 10 μg/ml of hemin. Leishmanial cells were counted by doing a 1:1 dilution of the cells with 3% formaldehyde/1×SSC (0.15 M NaCl/0.015 M sodium citrate) solution. Cells were seeded at log phase (0.5-1×10^6 cells/ml) in T-25 cm^2 flasks. Equal volumes of HHC at different concentrations (0.1, 0.25, 0.5, 1.0, 2.5 μM) were added to the cells. DMSO at the same volume as that used for HHC was included as solvent control. At each time point (6, 12, 18, 24, 32 hrs post-drug addition), cells were observed under the microscope for possible effect of HHC on Leishmanial motility. Aliquots of cells (100 μl) were removed from each flask at each time point, diluted as mentioned above and cell numbers were quantitated using a hemocytometer.

CC(C)CCC1=C(O)C(C(=O)C(C)C)=C(O)C(CCC(C)C)(CCC(C)C)C1=O [HHC, hexahydrocolupulone]
IC50 (MCF-7 cells): 1.62 µM
cytotoxic effect on cancer cells: effects upon DNA, RNA or protein synthesis [1]: not due to major effects upon DNA, RNA or protein synthesis
IC50 [2]: 1.97 µM
IC50 [3]: 1.21 µM
activity relative to non-hydrogenated parent [4]: more active than colupulone
cells/ml (Leishmania tarentolae; 0.1 μM, 6 hr): 2.65 no. of cells × 10^6
cells/ml (Leishmania tarentolae; 0.1 μM, 12 hr): 6.58 no. of cells × 10^6
cells/ml (Leishmania tarentolae; 0.1 μM, 18 hr): 12.1 no. of cells × 10^6
cells/ml (Leishmania tarentolae; 0.1 μM, 24 hr): 21.2 no. of cells × 10^6
cells/ml (Leishmania tarentolae; 0.1 μM, 32 hr): 43.9 no. of cells × 10^6
cells/ml (Leishmania tarentolae; 0.25 μM, 6 hr): 3.0 no. of cells × 10^6
cells/ml (Leishmania tarentolae; 0.25 μM, 12 hr): 7.35 no. of cells × 10^6
cells/ml (Leishmania tarentolae; 0.25 μM, 18 hr): 12.7 no. of cells × 10^6
cells/ml (Leishmania tarentolae; 0.25 μM, 24 hr): 19.72 no. of cells × 10^6
cells/ml (Leishmania tarentolae; 0.25 μM, 32 hr): 40.1 no. of cells × 10^6
cells/ml (Leishmania tarentolae; 0.5 μM, 6 hr): 2.43 no. of cells × 10^6
cells/ml (Leishmania tarentolae; 0.5 μM, 12 hr): 5.13 no. of cells × 10^6
cells/ml (Leishmania tarentolae; 0.5 μM, 18 hr): 9.22 no. of cells × 10^6
cells/ml (Leishmania tarentolae; 0.5 μM, 24 hr): 14.2 no. of cells × 10^6
cells/ml (Leishmania tarentolae; 0.5 μM, 32 hr): 29.2 no. of cells × 10^6
cells/ml (Leishmania tarentolae; 1.0 μM, 6 hr): 2.09 no. of cells × 10^6
cells/ml (Leishmania tarentolae; 1.0 μM, 12 hr): 2.53 no. of cells × 10^6
cells/ml (Leishmania tarentolae; 1.0 μM, 18 hr): 2.55 no. of cells × 10^6
cells/ml (Leishmania tarentolae; 1.0 μM, 24 hr): 2.9 no. of cells × 10^6
cells/ml (Leishmania tarentolae; 1.0 μM, 32 hr): 3.4 no. of cells × 10^6
cells/ml (Leishmania tarentolae; 2.5 μM, 6 hr): 1.81 no. of cells × 10^6
cells/ml (Leishmania tarentolae; 2.5 μM, 12 hr): 3.03 no. of cells × 10^6
cells/ml (Leishmania tarentolae; 2.5 μM, 18 hr): 3.38 no. of cells × 10^6
cells/ml (Leishmania tarentolae; 2.5 μM, 24 hr): 2.13 no. of cells × 10^6
cells/ml (Leishmania tarentolae; 2.5 μM, 32 hr): 2.82 no. of cells × 10^6
activity at 0.1 µM (Leishmania tarentolae; 0.1 μM, 6 hr): 76.4%
activity at 0.1 µM (Leishmania tarentolae; 0.1 μM, 12 hr): 96.6%
activity at 0.1 µM (Leishmania tarentolae; 0.1 μM, 18 hr): 96.8%
activity at 0.1 µM (Leishmania tarentolae; 0.1 μM, 24 hr): 118%
activity at 0.1 µM (Leishmania tarentolae; 0.1 μM, 32 hr): 114%
activity at 0.25 µM (Leishmania tarentolae; 0.25 μM, 6 hr): 86.5%
activity at 0.25 µM (Leishmania tarentolae; 0.25 μM, 12 hr): 103%
activity at 0.25 µM (Leishmania tarentolae; 0.25 μM, 18 hr): 101%
activity at 0.25 µM (Leishmania tarentolae; 0.25 μM, 24 hr): 110%
activity at 0.25 µM (Leishmania tarentolae; 0.25 μM, 32 hr): 104%
activity at 0.5 µM (Leishmania tarentolae; 0.5 μM, 6 hr): 70%
activity at 0.5 µM (Leishmania tarentolae; 0.5 μM, 12 hr): 72.1%
activity at 0.5 µM (Leishmania tarentolae; 0.5 μM, 18 hr): 73.8%
activity at 0.5 µM (Leishmania tarentolae; 0.5 μM, 24 hr): 79.3%
activity at 0.5 µM (Leishmania tarentolae; 0.5 μM, 32 hr): 75.6%
activity at 1 µM (Leishmania tarentolae; 1.0 μM, 6 hr): 60.2%
activity at 1 µM (Leishmania tarentolae; 1.0 μM, 12 hr): 35.5%
activity at 1 µM (Leishmania tarentolae; 1.0 μM, 18 hr): 20.4%
activity at 1 µM (Leishmania tarentolae; 1.0 μM, 24 hr): 16.2%
activity at 1 µM (Leishmania tarentolae; 1.0 μM, 32 hr): 8.8%
activity at 2.5 µM (Leishmania tarentolae; 2.5 μM, 6 hr): 52.2%
activity at 2.5 µM (Leishmania tarentolae; 2.5 μM, 12 hr): 42.6%
activity at 2.5 µM (Leishmania tarentolae; 2.5 μM, 18 hr): 27%
activity at 2.5 µM (Leishmania tarentolae; 2.5 μM, 24 hr): 11.9%
activity at 2.5 µM (Leishmania tarentolae; 2.5 μM, 32 hr): 7.3%
